{"source": "patent US5140025A", "about": "“Thienotricylene for the treatment of bronchial diseases” (BYK Gulden Lomberg Chemische Fabrik GmbH, priority 1987, dated 1992)", "key": {"[1]": {"test_system": "acetylcholine-induced bronchospasm", "experiment": "Acetylcholine-induced bronchospasm in anaesthetised, spontaneously breathing guinea pigs, intravenous administration", "assay_type": "in vivo, guinea pig (Pirbright White)", "conditions": "for Mean bronchospasmolytic activity, percentage increase of Vmaxe vs control spasm / Mean bronchospasmolytic activity, percentage increase of tidal volume (TV) vs control spasm: 0-60 min; for Mean bronchospasmolytic activity, percentage increase of Vmaxe vs control spasm / Mean bronchospasmolytic activity, percentage increase of tidal volume (TV) vs control spasm / Bronchospasmolytic activity, percentage increase of Vmaxe vs control spasm / Bronchospasmolytic activity, percentage increase of tidal volume (TV) vs control spasm: x±SEM, N=10; for Bronchospasmolytic activity, percentage increase of Vmaxe vs control spasm / Bronchospasmolytic activity, percentage increase of tidal volume (TV) vs control spasm: at 60 min", "from_the_text": "Effect of Intravenously Administered Telenzepine on Acetylchline-Induced Bronchospasms in Anaesthetised, Spontaneously Breathing Guinea Pigs\nMethod for simultaneously recording pharmacodynamic or toxic effects on interior sensitive receptors and the respiration of guinea pigs (U. Kilian, E. Muller, E. Ch. Dittmann and J. Hamacher, Arzneim.-Forsch. 28, 1699-1708, 1978).\nPirbright White, Interfauna (Tuttlingen), 350-450 g, male.\nEthylurethane 1.2 g/kg i.p. as 12.5% aqueous solution.\nPneumotachogram: Maximum flow velocities of the respiratory air during expiration (Vmaxe, \"peak flow\"), tidal volume (TV).\nAcetylcholine as spasmogen, 0.2-0.3 μmol/kg i.v., dissolved in 0.9% NaCl.\n-10 min control spasm, 0 min administration of substance, +2, +10, +20, +30, +60 min test spasms.\nDetermination of the effect of telenzepine on the parameters (mean and standard error of mean, n=10) and calculation of the bronchospasmolytic activity from this as percentage inhibition of the acetylcholine-induced decrease of Vmaxe and TV by means of time/effect curves. Computation of a dose/response curve of the mean bronchospasmolytic activity during the observation time (0-60 min) from the areas under the time/effect curves and reading of 1 h ED50 values. Determination of a dose/response curve of the bronchospasmolytic activity at time 60 min and reading ED50 values."}, "[2]": {"target": "M1 receptor (ganglionic)", "experiment": "Receptor affinity, electrically stimulated rabbit vas deferens in organ bath", "conditions": "vas deferens of the rabbit, agonist McN-A-343, Schild slope normalised to 1.00; listed as Compound 3", "description": "Isometric contractions (HSE force transducer, K-30; tilt and zones, BD-9 chart recorder) of isolated seminal duct sections of rabbits (male, white New Zealand rabbits, 2.5-3.5 kg) were recorded in an organ bath (10 ml, 31° C., gassing with carbogen, initial tension of the organs 0.75 g) under electrical stimultion (HSE stimulator; hook-shaped Pt electrode 1 cm below the water surface of the bath; 30 V, 0.5 ms, 0.05 Hz). After an equilibration time of 30 minutes, cumulative dose/response curves of McN-A-343 (10^-7 -2×10^-6 M) were recorded simultaneously on 8 organ sections in each case (control curves), using the technique described by van Rossum (1963). After 3 control curves, a fixed concentration of the agonist (for example 5×10^-7, 10^-6, 3×10^-6, 10^-5 or 3×10^-5 M) per organ section was applied and, after stabilisation of the effect, increasing concentrations of the agonist to be tested were added. The nutrient solution used had the following composition (mM): NaCl 118, KCl 4.7, CaCl2 ·2H2 O 2.5, MgSO4 ·7H2 O 0.6, KH2 PO 4 1.2, NaHCO3 25.0 and glucose 11.1. In order to block α2 -adrenoreceptors, the nutrient solution additionally contained 10^-6 M yohimbine."}, "[3]": {"target": "T1, M2 receptor (cardiac) (Rattus norvegicus, UniProt P10980)", "T1 construct": "isolated, left atria of rats (male 250-350 g); from tissue; host or cells: rat left atrium (isolated, male rats 250-350 g)", "T1 sequence (P10980 1-466)": "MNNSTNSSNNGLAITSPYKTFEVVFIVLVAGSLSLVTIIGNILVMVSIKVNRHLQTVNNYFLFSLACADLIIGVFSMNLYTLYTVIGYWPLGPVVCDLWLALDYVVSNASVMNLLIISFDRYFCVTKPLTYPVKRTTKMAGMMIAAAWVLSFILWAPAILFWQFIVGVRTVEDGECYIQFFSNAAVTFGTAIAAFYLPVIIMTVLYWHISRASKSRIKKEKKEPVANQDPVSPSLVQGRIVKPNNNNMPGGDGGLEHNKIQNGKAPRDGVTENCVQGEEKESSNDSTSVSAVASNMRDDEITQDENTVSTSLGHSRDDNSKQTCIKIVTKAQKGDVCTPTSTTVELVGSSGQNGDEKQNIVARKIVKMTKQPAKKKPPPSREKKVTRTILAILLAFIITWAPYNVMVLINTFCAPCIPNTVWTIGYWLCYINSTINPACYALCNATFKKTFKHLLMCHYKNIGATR", "experiment": "Receptor affinity, electrically stimulated left atrium of the rat", "conditions": "agonist carbachol, Schild slope normalised to 1.00, read-out: pA2 ± SEM, M2 receptor (cardiac) (converted)", "from_the_text": "The affinity of (±)-4,9-dihydro-3-methyl-4-[(4-methyl-1-piperazinyl)-acetyl]-10H-thieno[3,4-b][1,5]benzodiazepin-10-one (telenzepine, compound 2 in Table 7) and its conformers [(+)-enantiomer=compound 1, (-)-enantiomer=compound 3] to muscarinic M1 (ganglionic type) and M2 (cardiac type) receptors was investigated by the following methods:\nElectrically Stimulated Left Atrium of the Rat (Eltze et al., 1985, Europ. J. Pharmacol. 112, 211-224).\nIsometric contractions (HSE force transducer, K-30; Watanabe Linear Corder Mark 5) of isolated, left atria of rats (male 250-350 g) were recorded in an organ bath (10 ml, Tyrode nutrient solution, 31° C., gassing with carbogen, initial tension of the organs 0.25 g) under electrical stimulation (HSE stimulator; hook-shaped Pt electrodes at the base of the bath and immersed, annular Pt electrodes 1 cm below the water surface of the bath; 7 V, 3 ms, 2 Hz). After an equilibration time of 30 minutes, cumulative dose/response curves of carbachol (10^-8 -10^-6 M, in the presence of the antagonist also up to 10^-5 or 10^-4 M) were recorded simultaneously on 4 organs in each case by the technique described by van Rossum (1963). The substance to be tested was added to the organ baths 20 minutes before application of the carbachol. The pauses between the individual dose/response curves were 30-45 minutes.\nThe Tyrode nutrient solution used had the following composition (mM): NaCl 130, KCl 2.0, CaCl2 ·2H2 O 1.8, MgCl2 ·6H2 O 0.98, NaHCO3 12.0, NaH2 PO4 0.42 and glucose monohydrate 5.6. pA2 values (-log of the molar dissociation constants of the competitive antagonist-receptor complex) were determined by linear regression using the Schild plot: pA2 =-log [B/(x-1)], (Arunlakshana and Schild, 1959).\nTable 7 below gives pA2 values of the substances, for which the slope of the regression lines for theoretically competitive antagonism have been normalised to 1.00 (Tallarida et al., 1979)."}, "[4]": {"test_system": "modified Shay rat (lesion formation and acid secretion)", "experiment": "Antiulcerogenic and secretion-inhibiting action on the modified Shay rat", "assay_type": "in vivo", "from_the_text": "The excellent gastric protective action and the gastric secretion-inhibiting action of the compound (+)-4,9-dihydro-3-methyl-4-[(4-methyl-1-piperazinyl)-acetyl]-10H-thieno[3,4-b][1,5]benzodiazepin-10-one (=compound 1 in Table 8 below) in comparison with the corresponding (-)-enantiomer (=compound 3) and with the racemate (=compound 2) can be detected in studies on the modified Shay rat. The effect of the stated compounds after intravenous (i.v.) administration on the formation of lesions and the acid secretion in the modified Shay rat is shown in Table 8 below.\nUlcers are provoked in rats (female, 180-200 g, 4 animals per cage on high grids) which have fasted for 24 hours, by pylorus ligature (under diethyl ether anaesthesia) and oral administration of 100 mg/10 ml/kg of acetylsalicylic acid. The substances to be tested are administered intravenously (1 ml/kg) directly after the pylorus ligature. The wound is closed by means of Michel clamps. 4 hours afterwards, the animals are sacrificed under anaesthesia with ether by Atlas dislocation, and resection of the stomach.\nThe stomach is opened along the greater curvature and clamped to a cork sheet, the amount of secreted gastric juice (volume) is determined first and its HCl content (titration with sodium hydroxide solution) being determined subsequently. The number and size (=diameter) of ulcers present are determined using a stereomicroscope, under 10×magnification. The product of severity (according to the following point scale) and number of ulcers serves as an individual lesion index.\nThe reduction in the means lesion index of each treated group compared with the control group (=100%) serves as a measure of the antiulcerogenic effect. The ED50 is the dose which reduces the mean lesion index or the HCl secretion by 50% compared with the control."}, "[5]": {"conditions": "at time 60 min after administration, 60 min"}, "[6]": {"conditions": "modified Shay rat, i.v., interpolated dose, 4 h, N=24, listed as 3, 240 min"}}, "data": [{"molecule": "Cc1scc2c1N(C(=O)CN1CCN(C)CC1)c1ccccc1NC2=O", "note": "[(-)-telenzepine, (-)-4,9-dihydro-3-methyl-4-[(4-methyl-1-piperazinyl)-acetyl]-10H-thieno-[3,4-b][1,5]benzodiazepin-10-one]", "values": [{"measurement": "Mean bronchospasmolytic activity, percentage increase of Vmaxe vs control spasm", "setting": "[1]; 0.1 μmol/kg i.v.", "value": "2 ± 1", "unit": "%"}, {"measurement": "Mean bronchospasmolytic activity, percentage increase of tidal volume (TV) vs control spasm", "setting": "[1]; 0.1 μmol/kg i.v.", "value": "0 ± 2", "unit": "%"}, {"measurement": "Mean bronchospasmolytic activity, percentage increase of Vmaxe vs control spasm", "setting": "[1]; 1 μmol/kg i.v.", "value": "17 ± 3", "unit": "%"}, {"measurement": "Mean bronchospasmolytic activity, percentage increase of tidal volume (TV) vs control spasm", "setting": "[1]; 1 μmol/kg i.v.", "value": "20 ± 5", "unit": "%"}, {"measurement": "Mean bronchospasmolytic activity, percentage increase of Vmaxe vs control spasm", "setting": "[1]; 5 μmol/kg i.v.", "value": "65 ± 4", "unit": "%"}, {"measurement": "Mean bronchospasmolytic activity, percentage increase of tidal volume (TV) vs control spasm", "setting": "[1]; 5 μmol/kg i.v.", "value": "74 ± 4", "unit": "%"}, {"measurement": "Mean bronchospasmolytic activity, percentage increase of Vmaxe vs control spasm", "setting": "[1]; 10 μmol/kg i.v.", "value": "79 ± 2", "unit": "%"}, {"measurement": "Mean bronchospasmolytic activity, percentage increase of tidal volume (TV) vs control spasm", "setting": "[1]; 10 μmol/kg i.v.", "value": "87 ± 2", "unit": "%"}, {"measurement": "Mean bronchospasmolytic activity, percentage increase of Vmaxe vs control spasm", "setting": "[1]; 30 μmol/kg i.v.", "value": "89 ± 3", "unit": "%"}, {"measurement": "Mean bronchospasmolytic activity, percentage increase of tidal volume (TV) vs control spasm", "setting": "[1]; 30 μmol/kg i.v.", "value": "98 ± 3", "unit": "%"}, {"measurement": "Bronchospasmolytic activity, percentage increase of Vmaxe vs control spasm", "setting": "[1]; 0.1 μmol/kg i.v.", "value": "1 ± 1", "unit": "%"}, {"measurement": "Bronchospasmolytic activity, percentage increase of tidal volume (TV) vs control spasm", "setting": "[1]; 0.1 μmol/kg i.v.", "value": "-3 ± 3", "unit": "%"}, {"measurement": "Bronchospasmolytic activity, percentage increase of Vmaxe vs control spasm", "setting": "[1]; 1 μmol/kg i.v.", "value": "18 ± 3", "unit": "%"}, {"measurement": "Bronchospasmolytic activity, percentage increase of tidal volume (TV) vs control spasm", "setting": "[1]; 1 μmol/kg i.v.", "value": "22 ± 5", "unit": "%"}, {"measurement": "Bronchospasmolytic activity, percentage increase of Vmaxe vs control spasm", "setting": "[1]; 5 μmol/kg i.v.", "value": "77 ± 5", "unit": "%"}, {"measurement": "Bronchospasmolytic activity, percentage increase of tidal volume (TV) vs control spasm", "setting": "[1]; 5 μmol/kg i.v.", "value": "88 ± 6", "unit": "%"}, {"measurement": "Bronchospasmolytic activity, percentage increase of Vmaxe vs control spasm", "setting": "[1]; 10 μmol/kg i.v.", "value": "77 ± 3", "unit": "%"}, {"measurement": "Bronchospasmolytic activity, percentage increase of tidal volume (TV) vs control spasm", "setting": "[1]; 10 μmol/kg i.v.", "value": "89 ± 3", "unit": "%"}, {"measurement": "Bronchospasmolytic activity, percentage increase of Vmaxe vs control spasm", "setting": "[1]; 30 μmol/kg i.v.", "value": "88 ± 4", "unit": "%"}, {"measurement": "Bronchospasmolytic activity, percentage increase of tidal volume (TV) vs control spasm", "setting": "[1]; 30 μmol/kg i.v.", "value": "94 ± 3", "unit": "%"}, {"measurement": "ED50 of bronchospasmolytic activity, TV", "setting": "[1]; [5]", "value": 2.0, "unit": "μmol/kg i.v."}, {"measurement": "ED50 of bronchospasmolytic activity, Vmaxe", "setting": "[1]; [5]", "value": 3.2, "unit": "μmol/kg i.v."}, {"measurement": "onset of efficacy", "setting": "[1]; doses between 0.1 and 1 μmol/kg i.v.", "value": "significantly delayed"}, {"measurement": "ED50 of mean bronchospasmolytic activity, TV", "setting": "[1]; mean activity 0-60 min, 60 min", "value": 2.5, "unit": "μmol/kg i.v."}, {"measurement": "ED50 of mean bronchospasmolytic activity, Vmaxe", "setting": "[1]; mean activity 0-60 min, 60 min", "value": 3.1, "unit": "μmol/kg i.v."}, {"measurement": "pA2 ± SEM, M1 receptor (ganglionic)", "setting": "[2]", "value": "6.98 ± 0.14"}, {"measurement": "Kb", "setting": "[3]", "value": 759, "unit": "nM"}, {"measurement": "Inhibition (of acid secretion) following 3 mg", "setting": "[4]; 3 mg (i.v.), footnote to the ED50 of HCl secretion", "value": 46, "unit": "%"}, {"measurement": "Gastric protective action, reduction of lesion index, about ED50", "setting": "[4]; [6]", "value": "~0.65", "unit": "mg/kg i.v."}, {"measurement": "Inhibition of acid secretion, reduction of HCl secretion, about ED50", "setting": "[4]; [6]", "value": "~3.0", "unit": "mg/kg i.v."}]}]}
